Drawing on PubChem BioAssay (NCI), this text covers TGI for 16 molecules.

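Where inhibition never reached the appropriate level, the endpoint shown equals the highest concentration tested. Otherwise, values were interpolated linearly from a five-concentration, 48-hour dose response in 96-well plates. Definition used: TGI = concentration required for complete inhibition of growth.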

One assay concerns A549 NSCLC. The experiment in a line: growth of human tumour cells (NCI), 48 h.
`CC(C)OP(=O)(OC(C)C)C(C(C)C)N(C)/C(N)=N\C1=NC(C(F)(F)F)(C(F)(F)F)N=C(C(C(F)(F)F)C(F)(F)F)O1` (stereo not given) showed a TGI of 14.6 µM.

Molecule `O=c1c2cc(S(=O)(=O)Nc3ccccc3Cl)ccc2ncn1NS(=O)(=O)c1ccc(Br)cc1` had a TGI of more than 37.5 µM.

In turn, `CC1=C(C(=O)Nc2cccc3c2C(=O)NC3=O)CC(C(=O)Nc2cccc3c2C(=O)NC3=O)=C(C)N1` registered a TGI of more than 100 µM.

On to `CC1C2CC(CC(=O)N2)C1(C)C` (stereo not given), for which the TGI is more than 100 µM.

As for `COc1cc(S(=O)(=O)Nc2ccc(-c3csc(N4C(=O)CSC4c4cccs4)n3)cc2)ccc1Cl` (stereo not given), the TGI was more than 100 µM.

Molecule `C[C@H]1[C@H](C)N(Cc2ccccc2)P(=O)(C(O)/C=C/c2ccccc2)N1Cc1ccccc1` (stereo not given in full) showed a TGI of more than 25 µM.

Consider `NCCCCNCCCN1CC1`, for which the TGI is more than 100 µM.

`Cc1c2ccncc2cc2c1sc1ccncc12` yielded a TGI of 5.3 µM.

`CCOC(=O)c1nc2ccc(C(F)(F)F)cc2nc1NCc1ccc(Cl)c(Cl)c1` returned a TGI of more than 100 µM.

Take `NCCCNCCCNCCCN`: the TGI was more than 100 µM.

Take `Cn1nc(Cc2ccc(Cl)cc2)n(N)c1=O`: the TGI was more than 100 µM.

Turning to `CCc1nnc(CC)n1NCCCC(=O)O`, the TGI was more than 100 µM.

For `CCOC(=O)NC(C(F)(F)F)(C(F)(F)F)P(=O)(OC(C)C)OC(C)C`, the TGI was more than 100 µM.

Consider `C/C(=N\N)C(CN(C)C)C(c1ccccc1)c1c(O)c2ccccc2oc1=O` (stereo not given), for which the TGI was more than 100 µM.

Molecule `CSC1=N[C@H](c2ccccc2)CS1` returned a TGI of more than 100 µM.

`CN(C)c1ccc(-c2c(C#N)c(N)[nH]c(=S)c2C#N)cc1`: the TGI was more than 100 µM.

For the next assay, the system named is ACHN renal. The experiment in a line: growth of human tumour cells (NCI), 48 h.
Consider `CC(C)OP(=O)(OC(C)C)C(C(C)C)N(C)/C(N)=N\C1=NC(C(F)(F)F)(C(F)(F)F)N=C(C(C(F)(F)F)C(F)(F)F)O1` (stereo not given), for which the TGI was found to be 8.67 µM.

As for `O=c1c2cc(S(=O)(=O)Nc3ccccc3Cl)ccc2ncn1NS(=O)(=O)c1ccc(Br)cc1`, the TGI was more than 37.5 µM.

`CC1=C(C(=O)Nc2cccc3c2C(=O)NC3=O)CC(C(=O)Nc2cccc3c2C(=O)NC3=O)=C(C)N1`: the TGI was more than 100 µM.

For the molecule `CC1C2CC(CC(=O)N2)C1(C)C` (stereo not given), the TGI was more than 100 µM.

In turn, `COc1cc(S(=O)(=O)Nc2ccc(-c3csc(N4C(=O)CSC4c4cccs4)n3)cc2)ccc1Cl` (stereo not given) registered a TGI of more than 100 µM.

The molecule `C[C@H]1[C@H](C)N(Cc2ccccc2)P(=O)(C(O)/C=C/c2ccccc2)N1Cc1ccccc1` (stereo not given in full) showed a TGI of more than 25 µM.

The molecule `Cc1c2ccncc2cc2c1sc1ccncc12` displayed a TGI of 4.22 µM.

`CCOC(=O)c1nc2ccc(C(F)(F)F)cc2nc1NCc1ccc(Cl)c(Cl)c1` came in with a TGI of 68 µM.

Molecule `NCCCNCCCNCCCN` had a TGI of more than 100 µM.

With `Cn1nc(Cc2ccc(Cl)cc2)n(N)c1=O`, the TGI is more than 100 µM.

For the molecule `CCc1nnc(CC)n1NCCCC(=O)O`, the TGI is more than 100 µM.

With `CCOC(=O)NC(C(F)(F)F)(C(F)(F)F)P(=O)(OC(C)C)OC(C)C`, the TGI is more than 100 µM.

In the case of `C/C(=N\N)C(CN(C)C)C(c1ccccc1)c1c(O)c2ccccc2oc1=O` (stereo not given), the TGI is more than 100 µM.

As for `CSC1=N[C@H](c2ccccc2)CS1`, the TGI was more than 100 µM.

Turning to `CN(C)c1ccc(-c2c(C#N)c(N)[nH]c(=S)c2C#N)cc1`, the TGI is more than 100 µM.

The next assay concerns COLO 205 colon. The experiment in a line: growth of human tumour cells (NCI), 48 h.
`CC(C)OP(=O)(OC(C)C)C(C(C)C)N(C)/C(N)=N\C1=NC(C(F)(F)F)(C(F)(F)F)N=C(C(C(F)(F)F)C(F)(F)F)O1` (stereo not given) yielded a TGI of 3.64 µM.

`O=c1c2cc(S(=O)(=O)Nc3ccccc3Cl)ccc2ncn1NS(=O)(=O)c1ccc(Br)cc1` returned a TGI of more than 37.5 µM.

`CC1=C(C(=O)Nc2cccc3c2C(=O)NC3=O)CC(C(=O)Nc2cccc3c2C(=O)NC3=O)=C(C)N1`: the TGI was more than 100 µM.

`CC1C2CC(CC(=O)N2)C1(C)C` (stereo not given) came in with a TGI of more than 100 µM.

On to `COc1cc(S(=O)(=O)Nc2ccc(-c3csc(N4C(=O)CSC4c4cccs4)n3)cc2)ccc1Cl` (stereo not given), for which the TGI is more than 100 µM.

For the molecule `C[C@H]1[C@H](C)N(Cc2ccccc2)P(=O)(C(O)/C=C/c2ccccc2)N1Cc1ccccc1` (stereo not given in full), the TGI was determined as 17.4 µM.

Turning to `NCCCCNCCCN1CC1`, the TGI is 3.71 µM.

With `Cc1c2ccncc2cc2c1sc1ccncc12`, the TGI stood at 12.1 µM.

For `CCOC(=O)c1nc2ccc(C(F)(F)F)cc2nc1NCc1ccc(Cl)c(Cl)c1`, the TGI is more than 100 µM.

The molecule `NCCCNCCCNCCCN` yielded a TGI of more than 100 µM.

The molecule `CCc1nnc(CC)n1NCCCC(=O)O` displayed a TGI of more than 100 µM.

In turn, `CCOC(=O)NC(C(F)(F)F)(C(F)(F)F)P(=O)(OC(C)C)OC(C)C` gave a TGI of more than 100 µM.

Consider `C/C(=N\N)C(CN(C)C)C(c1ccccc1)c1c(O)c2ccccc2oc1=O` (stereo not given), for which the TGI was more than 100 µM.

As for `CSC1=N[C@H](c2ccccc2)CS1`, the TGI was more than 100 µM.

With `CN(C)c1ccc(-c2c(C#N)c(N)[nH]c(=S)c2C#N)cc1`, the TGI is more than 100 µM.

A further assay deals with DU-145 prostate. The experiment in a line: growth of human tumour cells (NCI), 48 h.
Consider `CC(C)OP(=O)(OC(C)C)C(C(C)C)N(C)/C(N)=N\C1=NC(C(F)(F)F)(C(F)(F)F)N=C(C(C(F)(F)F)C(F)(F)F)O1` (stereo not given), for which the TGI was determined as 25.6 µM.

`O=c1c2cc(S(=O)(=O)Nc3ccccc3Cl)ccc2ncn1NS(=O)(=O)c1ccc(Br)cc1` had a TGI of more than 37.5 µM.

`CC1=C(C(=O)Nc2cccc3c2C(=O)NC3=O)CC(C(=O)Nc2cccc3c2C(=O)NC3=O)=C(C)N1` gave a TGI of more than 100 µM.

`CC1C2CC(CC(=O)N2)C1(C)C` (stereo not given): the TGI was more than 100 µM.

`COc1cc(S(=O)(=O)Nc2ccc(-c3csc(N4C(=O)CSC4c4cccs4)n3)cc2)ccc1Cl` (stereo not given): the TGI was determined as 62 µM.

`NCCCCNCCCN1CC1` registered a TGI of more than 29.6 µM.

With `Cc1c2ccncc2cc2c1sc1ccncc12`, the TGI came out at 6.9 µM.

Molecule `NCCCNCCCNCCCN` had a TGI of more than 100 µM.

As for `Cn1nc(Cc2ccc(Cl)cc2)n(N)c1=O`, the TGI is more than 100 µM.

On to `CCc1nnc(CC)n1NCCCC(=O)O`, for which the TGI is more than 100 µM.

`CCOC(=O)NC(C(F)(F)F)(C(F)(F)F)P(=O)(OC(C)C)OC(C)C`: the TGI is more than 100 µM.

For `C/C(=N\N)C(CN(C)C)C(c1ccccc1)c1c(O)c2ccccc2oc1=O` (stereo not given), the TGI was more than 100 µM.

Molecule `CSC1=N[C@H](c2ccccc2)CS1` displayed a TGI of more than 100 µM.

On to `CN(C)c1ccc(-c2c(C#N)c(N)[nH]c(=S)c2C#N)cc1`, for which the TGI is more than 100 µM.

For a further assay, the system named is HCC-2998 colon. The experiment in a line: growth of human tumour cells (NCI), 48 h.
With `CC(C)OP(=O)(OC(C)C)C(C(C)C)N(C)/C(N)=N\C1=NC(C(F)(F)F)(C(F)(F)F)N=C(C(C(F)(F)F)C(F)(F)F)O1` (stereo not given), the TGI was 19.5 µM.

Take `O=c1c2cc(S(=O)(=O)Nc3ccccc3Cl)ccc2ncn1NS(=O)(=O)c1ccc(Br)cc1`: the TGI was more than 37.5 µM.

Consider `CC1=C(C(=O)Nc2cccc3c2C(=O)NC3=O)CC(C(=O)Nc2cccc3c2C(=O)NC3=O)=C(C)N1`, for which the TGI was more than 100 µM.

`CC1C2CC(CC(=O)N2)C1(C)C` (stereo not given) had a TGI of more than 100 µM.

In turn, `COc1cc(S(=O)(=O)Nc2ccc(-c3csc(N4C(=O)CSC4c4cccs4)n3)cc2)ccc1Cl` (stereo not given) yielded a TGI of 30.7 µM.

In turn, `C[C@H]1[C@H](C)N(Cc2ccccc2)P(=O)(C(O)/C=C/c2ccccc2)N1Cc1ccccc1` (stereo not given in full) gave a TGI of 15.5 µM.

Regarding `NCCCCNCCCN1CC1`, the TGI stood at 97.1 µM.

Regarding `Cc1c2ccncc2cc2c1sc1ccncc12`, the TGI is 15.4 µM.

Molecule `NCCCNCCCNCCCN` showed a TGI of more than 100 µM.

Molecule `Cn1nc(Cc2ccc(Cl)cc2)n(N)c1=O` came in with a TGI of more than 100 µM.
